“Also recorded” adds a separate entry of the source. Where a name gives a salt, the structure may show the parent alone. Read-outs that look alike come from different tables or passages of the source.
Columns and labels:
[1] = Stability of L-DOPA ethyl ester prepared according to Examples 1 and 2 (Table 2); type: physicochemical; design: key to COLOR: A: White with gray particles; B: Cream; C: WhiteYellow; D: Yellow; E: Dark Yellow; F: Gray; IMPURITIES: unit not given beside the values
Text: | STABILITY OF L-DOPA ESTER PREPARED

[2] = Hygroscopicity, stability and crystallization of L-DOPA ethyl ester hydrochloride / free base made by conventional methods; type: physicochemical
Text: GB Patent No. 1,364,505 and corresponding U.S. Pat. No. 3,803,120, assigned to Hoffman-La Roche, describe the synthesis of L-DOPA ethyl ester hydrochloride salt and free base. This compound synthesized is used as an intermediate in the synthesis of other compounds and is not characterized in the patent specification. […] This material cannot be used for pharmaceutical compositions.

[3] = literature, hydrochloride, cited from earlier work
[4] = Bio-availability of L-DOPA ethyl ester in rats (subcutaneous), plasma L-DOPA profile; type: in vivo; details: s.c.
Protocol: Three subgroups of rats, each comprising four males and four females, were injected subcutaneously with 100 mg./kg. L-DOPA equivalents as L-DOPA ethyl ester. The L-DOPA ethyl ester was prepared as described in Example 1 and formulated as described in Example 4. After injection, blood samples were taken from the tail at the times shown below and analyzed for L-DOPA as described in T. Wikberg, J. of Pharmaceutical & Biomedical Analysis 9: 167-176 (1991). […] The L-DOPA plasma profile following injection is shown below: […]

[5] = Oral administration of L-DOPA ethyl ester to volunteers, plasma L-DOPA levels; type: in vivo, human; details: humans
Protocol: Human volunteers orally received 100 mg equivalents of L-DOPA as L-DOPA ethyl ester prepared according to Example 1 and formulated as described in Example 5. Plasma levels of L-DOPA following administration of representative patients are listed below in Table 5.

[6] = test system: fluctuating Parkinsonian patients; assay: First oral clinical trial in fluctuating Parkinsonian patients; type: in vivo, human; details: four occasions over two days, five patients
Protocol: This was the second in a series of oral clinical trials carried out with L-DOPA ethyl ester. The first clinical trial was carried out in five fluctuating Parkinsonian patients in the hospital setting where L-DOPA ethyl ester was administered on four occasions over a two day period.

[7] = test system: fluctuating Parkinsonian patients; assay: Second oral clinical trial: safety, tolerability and preliminary efficacy of L-DOPA ethyl ester, sub-chronic; type: in vivo, human
Protocol: A clinical trial was carried out to determine the safety, tolerability, and preliminary efficacy of L-DOPA ethyl ester administered sub-chronically via the oral route in eight fluctuating Parkinsonian patients.
In the second clinical trial, all patients filled out daily diary cards for at least 10 days prior to study entry to ensure their reliability. Upon study entry they were instructed to continue filling out daily diary cards for the 10-day period during which they were taking L-DOPA ethyl ester.
Three out of the patients' normal daily doses with levodopa/carbidopa or levodopa/benserazide were switched to L-DOPA ethyl ester, each day for ten days. At the beginning and end of this ten-day period, a physical exam was performed and blood chemistry analyzed.

[8] = test system: Parkinson's Disease patients having response fluctuations; assay: Clinical trial: administration of L-DOPA ethyl ester by injection (UPDRS on/off phases); type: in vivo, human
Protocol: A clinical trial was undertaken to assess the clinical efficacy of L-DOPA ethyl ester administered by sub-cutaneous injection.
The solution for injection L-DOPA ethyl ester 100mg, HCl to pH 4.0 and purified water as the vehicle.
Ten Parkinson's Disease patients having response fluctuations were hospitalized. These patients are typified in have "on" phases fluctuating with incapacitating "off" phases. Patients were administered s.c. or i.m. L-DOPA ethyl ester at escalating doses of 150-300mg in 2ml vehicle, twice daily, one hour after an oral capsule containing 25mg of carbidopa. "Off" and "on" UPDRS (Unified Parkinson's Disease Rating Scale) profiles, time to "on" phase and duration of "on" phase were measured. Blood samples were taken every 10 minutes post-L-DOPA ethyl ester administration for measurement of levodopa levels.

[9] = cited from earlier work
Parkinsonian patients = details: cited from earlier work
[10] = synthesized by the methods of GB 1,364,505 / U.S. 3,803,120
[11] = 25° C. -N2, 1 m, listed as Example 1
[12] = 25° C. -N2, 2 m, listed as Example 1
[13] = 25° C. -N2, 4 m, listed as Example 1
[14] = 40° C., 1 m, listed as Example 1
[15] = 40° C., 2 m, listed as Example 1
[16] = 40° C., 4 m, listed as Example 1
[17] = s.c./i.m. injection, dose dependence

## CCOC(=O)[C@@H](N)Cc1ccc(O)c(O)c1 [Example 2b, L-DOPA ethyl ester]
[1]; 25° C. -N2, 1 m
  COLOR: D/E
  IMPURITIES: 13.0
[1]; 25° C. -N2, 1 m, 43200 min
  ASSAY: 88.0%
[1]; 25° C. -N2, 2 m
  COLOR: D/E
  IMPURITIES: 13.9
[1]; 25° C. -N2, 2 m, 86400 min
  ASSAY: 86.8%
[1]; 25° C. -N2, 4 m
  COLOR: D/E
  IMPURITIES: 9.7
[1]; 25° C. -N2, 4 m, 172800 min
  ASSAY: 88.1%
[1]; 40° C., 1 m
  COLOR: D/E
  IMPURITIES: 14.0
[1]; 40° C., 1 m, 43200 min
  ASSAY: 85.1%
[1]; 40° C., 2 m
  COLOR: D/E
  IMPURITIES: 18.2
[1]; 40° C., 2 m, 86400 min
  ASSAY: 83.3%
[1]; 40° C., 4 m
  COLOR: F
[1]; 40° C., 4 m, 172800 min
  ASSAY: 79.2%
[1]; t = 0
  ASSAY: 87.9%

## CCOC(=O)[C@@H](N)Cc1ccc(O)c(O)c1 [Example 2a, L-DOPA ethyl ester]
[1]; 25° C. -N2, 1 m
  COLOR: D
  IMPURITIES: 16.9
[1]; 25° C. -N2, 1 m, 43200 min
  ASSAY: 83.1%
[1]; 25° C. -N2, 2 m
  COLOR: E
  IMPURITIES: 17.2
[1]; 25° C. -N2, 2 m, 86400 min
  ASSAY: 84.4%
[1]; 40° C., 1 m
  COLOR: E
  IMPURITIES: 20.9
[1]; 40° C., 1 m, 43200 min
  ASSAY: 82.6%
[1]; 40° C., 2 m
  COLOR: E
  IMPURITIES: 19.3
[1]; 40° C., 2 m, 86400 min
  ASSAY: 80.0%
[1]; t = 0
  ASSAY: 87%

## CCOC(=O)[C@@H](N)Cc1ccc(O)c(O)c1 [L-DOPA ethyl ester hydrochloride salt, L-DOPA ethyl ester hydrochloride]
[2]; applicant's own finding, hydrochloride
  hygroscopicity: hygroscopic nature
[2]; [10]
  crystallization: difficult to crystallize
  stability: not stable
[3]
  crystallization: difficult to crystallize
  hygroscopicity: hygroscopic
[3]; listed as ethyl ester
  crystallization: could not be crystallized as its hydrochloride salt
  hygroscopicity: hygroscopic potential

## CCOC(=O)[C@@H](N)Cc1ccc(O)c(O)c1 [L-DOPA ethyl ester]
[1]; [11]
  COLOR: A
  IMPURITIES: 1.2
[1]; [12]
  COLOR: B
  IMPURITIES: 0.7
[1]; [13]
  COLOR: C
  IMPURITIES: 0.6
[1]; [14]
  COLOR: A
  IMPURITIES: 2.4
[1]; [15]
  COLOR: B
  IMPURITIES: 0.7
[1]; 40° C., 4 m, 172800 min, listed as Example 1, 172800 min
  ASSAY: 99.7%
[1]; [16]
  COLOR: C
  IMPURITIES: 0.5
[1]; storage, 25° C. -N2, 1 m
  remaining at 720 h: 98%
[1]; storage, 25° C. -N2, 2 m
  remaining at 1440 h: 99.4%
[1]; storage, 25° C. -N2, 4 m
  remaining at 2880 h: 99.5%
[1]; storage, 40° C., 1 m
  remaining at 720 h: 98.9%
[1]; storage, 40° C., 2 m
  remaining at 1440 h: 99.6%
[4]
  conversion to L-DOPA: fully converted to L-DOPA
[4]; 100 mg./kg. L-DOPA equivalents
  L-DOPA ethyl ester detected in plasma samples: No L-DOPA ethyl ester was detected in any of the plasma samples
[4]; compared with L-DOPA
  kinetic profile: kinetic profile similar to L-DOPA
[5]
  conversion of L-DOPA ethyl ester to L-DOPA: rapid conversion of L-DOPA ethyl ester to L-DOPA in humans
[6]
  adverse reactions: No adverse reactions were recorded in any of the patients
[7]; following ten-day treatment
  serum chemistry: no abnormalities or changes for any patient
[7]; ten days
  duration of the anti-Parkinsonian effect: marked beneficial effect
  latency to initiation of drug action: marked beneficial effect
  variability of the response of the patient to the drug's effect: significant decrease
[7]; ten days, three times per day
  safety and tolerability: well tolerated by all individuals in the trial; also recorded: safe, well tolerated
[7]; ten days, three times per day, potential advantage
  unpredictability of drug response: reducing the unpredictability of drug response
[7]; ten-day treatment, eight patients
  patient complaints / adverse reaction: no patient complaints nor any reported adverse reaction
[8]; 150 mg i.m., 2 injections, range (30-45)
  MEAN TIME TO "ON" (RANGE): 37.5 min
[8]; 150 mg i.m., 2 injections, range (60-70)
  MEAN DURATION OF "ON" (RANGE): 65 min
[8]; 150 mg s.c., 6 injections, range (10-55)
  MEAN DURATION OF "ON" (RANGE): 31.4 min
[8]; 150 mg s.c., 6 injections, range (25-90)
  MEAN TIME TO "ON" (RANGE): 54 min
[8]; 200 mg i.m., 5 injections, range (20-40)
  MEAN TIME TO "ON" (RANGE): 29.2 min
[8]; 200 mg i.m., 5 injections, range (28-175)
  MEAN DURATION OF "ON" (RANGE): 104.5 min
[8]; 200 mg s.c., 19 injections, range (10-120)
  MEAN TIME TO "ON" (RANGE): 38.6 min
[8]; 200 mg s.c., 19 injections, range (10-235)
  MEAN DURATION OF "ON" (RANGE): 126.9 min
[8]; 250 mg i.m., 5 injections, range (10-35)
  MEAN TIME TO "ON" (RANGE): 27.5 min
[8]; 250 mg i.m., 5 injections, range (75-170)
  MEAN DURATION OF "ON" (RANGE): 133.3 min
[8]; 250 mg s.c., 8 injections, range (20-40)
  MEAN TIME TO "ON" (RANGE): 27.1 min
[8]; 250 mg s.c., 8 injections, range (60-210)
  MEAN DURATION OF "ON" (RANGE): 155 min
[8]; 300 mg i.m., 7 injections, range (5-35)
  MEAN TIME TO "ON" (RANGE): 18.3 min
[8]; 300 mg i.m., 7 injections, range (135-265)
  MEAN DURATION OF "ON" (RANGE): 196.7 min
[8]; 300 mg s.c., 6 injections, range (5-37)
  MEAN TIME TO "ON" (RANGE): 22.8 min
[8]; 300 mg s.c., 6 injections, range (80-315)
  MEAN DURATION OF "ON" (RANGE): 193 min
[8]; s.c. LDEE injection
  patients turned to an "on" phase: All patients were turned to an "on" phase
[8]; s.c./i.m. injection
  local or general side effects: No local or general side effects were observed
  plasma levodopa elevations: rapid and sustained plasma levodopa elevations
[8]; [17]
  duration of "on" phases: increased in a dose-dependant manner
  latency of onset of "on" phases: decreased

## CCOC(=O)[C@@H](N)Cc1ccc(O)c(O)c1 [Example 2c, L-DOPA ethyl ester]
[1]; 25° C. -N2, 1 m
  COLOR: D
  IMPURITIES: 5.6
[1]; 25° C. -N2, 1 m, 43200 min
  ASSAY: 94.0%
[1]; 25° C. -N2, 2 m
  COLOR: D/E
  IMPURITIES: 5.1
[1]; 25° C. -N2, 2 m, 86400 min
  ASSAY: 93.6%
[1]; 25° C. -N2, 4 m
  COLOR: F
  IMPURITIES: 5.6
[1]; 25° C. -N2, 4 m, 172800 min
  ASSAY: 94.1%
[1]; 40° C., 1 m
  COLOR: D
  IMPURITIES: 5.7
[1]; 40° C., 1 m, 43200 min
  ASSAY: 91.7%
[1]; 40° C., 2 m
  COLOR: D/E
  IMPURITIES: 4.8
[1]; 40° C., 2 m, 86400 min
  ASSAY: 93%
[1]; 40° C., 4 m
  COLOR: F
  IMPURITIES: 6.4
[1]; 40° C., 4 m, 172800 min
  ASSAY: 93%
[1]; t = 0
  ASSAY: 95.8%

## N[C@@H](Cc1ccc(O)c(O)c1)C(=O)O [L-DOPA]
[8]; levodopa, prior to administration of LDEE
  mean duration of "on" phase: approximately 90 minutes
[8]; post-administration of levodopa, prior to administration of LDEE
  mean latency to an "on" phase: 45 to 75 min
[9]
  solubility: very poor solubility
Parkinsonian patients; L-DOPA therapy, on the average
  initial period of satisfactory, smooth and stable clinical benefit: 2-5 years
Parkinsonian patients; in vivo
  bioavailability: poor bioavailability
  half-life in vivo: short half-life in vivo

Source: US5607969A, “L-DOPA ethyl ester to treat Parkinson's disease” (priority 1995, dated 1997)
